Columns and labels:
Experiment in all cases: Caliper, Mobility shift assay off-chip
[1] = target: MERTK (human) (UniProt Q12866)
[2] = target: CAMK1 (human) (UniProt Q14012)
[3] = target: CDC42BPB (human) (UniProt Q9Y5S2)
[4] = target: CSF1R (human) (UniProt P07333)
[5] = target: EPHB4 (human) (UniProt P54760)
[6] = target: FER (human) (UniProt P16591)
[7] = target: FGFR2 (human) (UniProt P21802)
[8] = target: FGR (human) (UniProt P09769)
[9] = target: GSK3B (human) (UniProt P49841)
[10] = target: ITK (human) (UniProt Q08881)
[11] = tested on: KIT (human), P10721 [D816V]
[12] = target: LCK (human) (UniProt P06239)
[13] = target: MAP2K7 (human) (UniProt O14733)
[14] = target: MAP3K5 (human) (UniProt Q99683)
[15] = target: MINK1 (human) (UniProt Q8N4C8)
[16] = target: PDGFRA (human) (UniProt P16234)
[17] = target: PRKCD (human) (UniProt Q05655)
[18] = target: PRKCE (human) (UniProt Q02156)
[19] = target: PRKCQ (human) (UniProt Q04759)
[20] = target: PRKCZ (human) (UniProt Q05513)
[21] = target: RPS6KA2 KD1 KD2 (human) (UniProt Q15349)
[22] = target: SGK2 (human) (UniProt Q9HBY8)
[23] = target: STK17A (human) (UniProt Q9UEE5)
[24] = target: CAMK2B (human) (UniProt Q13554)
[25] = target: CAMK2G (human) (UniProt Q13555)
[26] = tested on: CHEK2 (human), O96017 [I157T]
[27] = target: CLK3 (human) (UniProt P49761)
[28] = target: CSNK1D (human) (UniProt P48730)
[29] = target: DCLK2 (human) (UniProt Q8N568)
[30] = target: EEF2K (human) (UniProt O00418)
[31] = target: EPHA8 (human) (UniProt P29322)
[32] = target: EPHB1 (human) (UniProt P54762)
[33] = tested on: FGFR1 (human), P11362 [V561M]
[34] = tested on: FGFR2 (human), P21802 [N549H]
[35] = target: IRAK1 (human) (UniProt P51617)
[36] = tested on: KIT (human), P10721 [D816H]
[37] = target: NLK (human) (UniProt Q9UBE8)
[38] = tested on: PDGFRA (human), P16234 [V561D]
[39] = target: PIM3 (human) (UniProt Q86V86)
[40] = target: PRKX (human) (UniProt P51817)
[41] = target: WNK2 (human) (UniProt Q9Y3S1)

Sequence of MAP2K7 (human) (O14733 whole entry, looked up): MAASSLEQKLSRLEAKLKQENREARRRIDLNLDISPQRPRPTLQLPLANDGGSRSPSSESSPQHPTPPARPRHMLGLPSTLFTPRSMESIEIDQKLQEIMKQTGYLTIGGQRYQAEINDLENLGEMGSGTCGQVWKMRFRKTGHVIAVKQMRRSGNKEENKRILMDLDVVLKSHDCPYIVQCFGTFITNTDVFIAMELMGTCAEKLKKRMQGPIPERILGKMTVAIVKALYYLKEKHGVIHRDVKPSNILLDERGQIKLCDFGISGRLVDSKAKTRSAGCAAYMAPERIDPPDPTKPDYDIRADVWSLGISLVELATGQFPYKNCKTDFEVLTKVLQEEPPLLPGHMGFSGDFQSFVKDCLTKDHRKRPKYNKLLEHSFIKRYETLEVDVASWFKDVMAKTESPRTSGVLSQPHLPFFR
Sequence of CAMK1 (human) (Q14012 whole entry, looked up): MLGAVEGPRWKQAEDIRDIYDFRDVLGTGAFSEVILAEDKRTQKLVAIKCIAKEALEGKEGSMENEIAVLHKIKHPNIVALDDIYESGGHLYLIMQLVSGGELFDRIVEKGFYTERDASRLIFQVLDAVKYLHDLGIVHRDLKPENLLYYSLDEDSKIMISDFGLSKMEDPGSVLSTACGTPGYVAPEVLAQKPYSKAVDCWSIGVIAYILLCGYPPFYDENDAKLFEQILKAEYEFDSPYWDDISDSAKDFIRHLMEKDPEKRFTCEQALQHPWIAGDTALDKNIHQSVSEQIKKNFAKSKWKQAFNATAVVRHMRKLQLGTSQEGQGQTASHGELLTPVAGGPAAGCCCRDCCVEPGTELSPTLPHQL
Sequence of KIT (human), P10721 [D816V] (P10721 whole entry D816V, looked up): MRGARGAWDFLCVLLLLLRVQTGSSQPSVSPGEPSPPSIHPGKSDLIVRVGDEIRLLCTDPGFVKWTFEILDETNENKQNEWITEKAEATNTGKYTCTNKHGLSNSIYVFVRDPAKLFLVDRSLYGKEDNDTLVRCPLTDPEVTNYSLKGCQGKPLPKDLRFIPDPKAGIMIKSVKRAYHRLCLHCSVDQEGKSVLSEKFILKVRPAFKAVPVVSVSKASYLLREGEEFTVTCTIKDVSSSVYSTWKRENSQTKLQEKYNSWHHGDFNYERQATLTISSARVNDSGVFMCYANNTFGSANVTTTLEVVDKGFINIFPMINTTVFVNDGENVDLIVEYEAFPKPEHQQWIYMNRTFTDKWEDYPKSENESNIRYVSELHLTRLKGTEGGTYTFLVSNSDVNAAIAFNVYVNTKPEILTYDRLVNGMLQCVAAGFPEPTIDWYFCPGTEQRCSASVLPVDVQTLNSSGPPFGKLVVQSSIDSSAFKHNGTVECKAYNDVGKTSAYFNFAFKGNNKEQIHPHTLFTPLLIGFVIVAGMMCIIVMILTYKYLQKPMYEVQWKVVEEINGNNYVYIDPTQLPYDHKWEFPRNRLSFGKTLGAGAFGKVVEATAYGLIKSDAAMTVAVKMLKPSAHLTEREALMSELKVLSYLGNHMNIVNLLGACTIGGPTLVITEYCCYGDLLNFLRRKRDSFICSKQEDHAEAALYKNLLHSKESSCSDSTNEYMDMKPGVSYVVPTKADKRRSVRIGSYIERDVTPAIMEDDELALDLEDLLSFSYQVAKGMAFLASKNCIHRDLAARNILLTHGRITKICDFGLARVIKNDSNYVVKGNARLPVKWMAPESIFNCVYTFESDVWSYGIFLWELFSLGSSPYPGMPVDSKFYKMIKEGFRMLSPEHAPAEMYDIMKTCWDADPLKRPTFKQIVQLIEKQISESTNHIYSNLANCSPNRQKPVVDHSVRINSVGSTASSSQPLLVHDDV
Sequence of FER (human) (P16591 whole entry, looked up): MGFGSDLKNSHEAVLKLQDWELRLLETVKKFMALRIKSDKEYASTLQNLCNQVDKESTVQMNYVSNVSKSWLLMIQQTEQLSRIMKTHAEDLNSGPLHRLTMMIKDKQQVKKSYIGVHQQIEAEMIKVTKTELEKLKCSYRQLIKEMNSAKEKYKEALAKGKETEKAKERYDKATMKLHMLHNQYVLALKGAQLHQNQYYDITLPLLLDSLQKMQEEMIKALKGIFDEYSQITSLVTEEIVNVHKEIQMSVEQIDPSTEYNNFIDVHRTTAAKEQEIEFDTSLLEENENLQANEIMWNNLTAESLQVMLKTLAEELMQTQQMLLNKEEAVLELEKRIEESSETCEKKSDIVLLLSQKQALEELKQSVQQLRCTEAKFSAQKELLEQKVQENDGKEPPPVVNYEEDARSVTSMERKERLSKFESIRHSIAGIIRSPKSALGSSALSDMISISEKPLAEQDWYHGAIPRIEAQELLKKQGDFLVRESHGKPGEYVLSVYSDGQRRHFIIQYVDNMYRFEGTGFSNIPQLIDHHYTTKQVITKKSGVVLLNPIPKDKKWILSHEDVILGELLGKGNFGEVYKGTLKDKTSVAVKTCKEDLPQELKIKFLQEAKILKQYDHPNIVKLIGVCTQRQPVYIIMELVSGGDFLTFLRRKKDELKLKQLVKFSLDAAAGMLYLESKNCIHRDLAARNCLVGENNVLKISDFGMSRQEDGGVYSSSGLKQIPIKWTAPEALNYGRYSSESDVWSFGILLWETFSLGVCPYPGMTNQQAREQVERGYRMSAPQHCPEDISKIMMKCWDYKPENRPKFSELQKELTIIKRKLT
Sequence of PDGFRA (human) (P16234 whole entry, looked up): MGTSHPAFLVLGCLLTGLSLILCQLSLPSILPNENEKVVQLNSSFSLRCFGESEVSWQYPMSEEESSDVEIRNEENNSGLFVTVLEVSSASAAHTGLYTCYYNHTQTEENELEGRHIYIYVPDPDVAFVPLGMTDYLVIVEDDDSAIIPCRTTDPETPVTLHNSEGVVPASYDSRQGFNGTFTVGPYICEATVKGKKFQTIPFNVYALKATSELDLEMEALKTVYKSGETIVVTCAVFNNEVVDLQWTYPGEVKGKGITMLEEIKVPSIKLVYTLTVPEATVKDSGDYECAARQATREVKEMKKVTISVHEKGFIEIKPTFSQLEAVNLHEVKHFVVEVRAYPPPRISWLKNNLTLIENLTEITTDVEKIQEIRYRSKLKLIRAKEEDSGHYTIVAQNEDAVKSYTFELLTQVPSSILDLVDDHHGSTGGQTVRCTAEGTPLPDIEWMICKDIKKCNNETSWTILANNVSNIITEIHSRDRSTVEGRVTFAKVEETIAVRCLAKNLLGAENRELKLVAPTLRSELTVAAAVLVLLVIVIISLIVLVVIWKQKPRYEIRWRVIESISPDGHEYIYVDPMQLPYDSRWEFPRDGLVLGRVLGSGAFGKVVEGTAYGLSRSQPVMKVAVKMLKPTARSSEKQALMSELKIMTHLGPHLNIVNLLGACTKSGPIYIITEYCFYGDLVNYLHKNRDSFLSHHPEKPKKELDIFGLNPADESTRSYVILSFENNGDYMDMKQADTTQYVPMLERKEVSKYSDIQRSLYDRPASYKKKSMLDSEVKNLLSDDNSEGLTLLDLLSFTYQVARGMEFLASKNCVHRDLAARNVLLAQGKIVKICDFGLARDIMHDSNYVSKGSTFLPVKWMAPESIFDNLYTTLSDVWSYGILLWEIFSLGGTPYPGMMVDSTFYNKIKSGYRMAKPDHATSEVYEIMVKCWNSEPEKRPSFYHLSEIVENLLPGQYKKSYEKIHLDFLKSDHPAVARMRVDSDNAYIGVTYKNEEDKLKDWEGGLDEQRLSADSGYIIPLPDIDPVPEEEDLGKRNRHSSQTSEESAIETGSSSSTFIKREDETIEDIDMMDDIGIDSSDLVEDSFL
Sequence of LCK (human) (P06239 whole entry, looked up): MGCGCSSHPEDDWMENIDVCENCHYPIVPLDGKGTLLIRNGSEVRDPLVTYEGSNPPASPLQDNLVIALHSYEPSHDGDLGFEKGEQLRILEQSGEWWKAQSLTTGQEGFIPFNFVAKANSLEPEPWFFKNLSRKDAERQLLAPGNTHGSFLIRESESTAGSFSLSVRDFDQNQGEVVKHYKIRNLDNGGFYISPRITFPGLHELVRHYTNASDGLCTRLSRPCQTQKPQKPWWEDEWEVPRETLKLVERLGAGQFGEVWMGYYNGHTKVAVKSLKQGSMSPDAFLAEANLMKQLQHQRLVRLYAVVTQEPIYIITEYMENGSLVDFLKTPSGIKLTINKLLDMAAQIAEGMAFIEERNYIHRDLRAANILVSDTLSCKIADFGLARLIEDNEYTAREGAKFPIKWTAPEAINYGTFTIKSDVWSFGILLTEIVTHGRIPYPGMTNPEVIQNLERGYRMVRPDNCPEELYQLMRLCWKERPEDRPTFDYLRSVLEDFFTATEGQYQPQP
Sequence of STK17A (human) (Q9UEE5 whole entry, looked up): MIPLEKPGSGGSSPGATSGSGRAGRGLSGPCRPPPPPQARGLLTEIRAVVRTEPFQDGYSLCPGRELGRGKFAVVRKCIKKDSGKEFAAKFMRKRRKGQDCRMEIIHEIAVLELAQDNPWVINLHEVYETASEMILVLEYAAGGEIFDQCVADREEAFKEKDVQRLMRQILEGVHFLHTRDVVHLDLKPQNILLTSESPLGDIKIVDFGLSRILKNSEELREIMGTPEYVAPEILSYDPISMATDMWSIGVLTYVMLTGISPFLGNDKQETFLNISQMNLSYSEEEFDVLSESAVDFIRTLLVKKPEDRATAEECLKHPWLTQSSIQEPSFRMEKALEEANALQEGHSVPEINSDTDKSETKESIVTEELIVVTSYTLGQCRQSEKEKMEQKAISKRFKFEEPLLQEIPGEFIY
Sequence of SGK2 (human) (Q9HBY8 whole entry, looked up): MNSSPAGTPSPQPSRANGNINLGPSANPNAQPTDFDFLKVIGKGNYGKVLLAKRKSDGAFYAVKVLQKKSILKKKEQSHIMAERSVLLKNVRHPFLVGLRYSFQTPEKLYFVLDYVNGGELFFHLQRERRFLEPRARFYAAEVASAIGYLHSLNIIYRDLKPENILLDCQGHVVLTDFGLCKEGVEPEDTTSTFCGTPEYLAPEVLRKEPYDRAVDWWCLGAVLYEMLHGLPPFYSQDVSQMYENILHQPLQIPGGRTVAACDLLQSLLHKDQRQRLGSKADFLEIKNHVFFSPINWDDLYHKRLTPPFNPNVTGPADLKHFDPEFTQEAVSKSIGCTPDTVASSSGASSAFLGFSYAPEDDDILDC
Sequence of PDGFRA (human), P16234 [V561D] (P16234 whole entry V561D, looked up): as the sequence (P16234 whole entry, looked up) above, with V561D counted along it

CC(C)(C)c1nc2c3ccc(F)cc3c3c(=O)[nH]ccc3c2[nH]1
residual activity ([1]; compound 10.0 µM): 28%

Cc1n[nH]c2c1c(=O)n(CCCN)c1ccc(Cl)cc21
residual activity ([2]; compound 1.0 µM): 45% | residual activity ([3]; compound 1.0 µM): 105% | residual activity ([4]; compound 1.0 µM): 55% | residual activity ([5]; compound 1.0 µM): 84% | residual activity ([6]; compound 1.0 µM): 104% | residual activity ([7]; compound 1.0 µM): 99% | residual activity ([8]; compound 1.0 µM): 71% | residual activity ([9]; compound 1.0 µM): 105% | residual activity ([10]; compound 1.0 µM): 127% | residual activity ([11]; compound 1.0 µM): 107% | residual activity ([12]; compound 1.0 µM): 82% | residual activity ([13]; compound 1.0 µM): 103% | residual activity ([14]; compound 1.0 µM): 117% | residual activity ([15]; compound 1.0 µM): 134% | residual activity ([16]; compound 1.0 µM): 110% | residual activity ([17]; compound 1.0 µM): 78% | residual activity ([18]; compound 1.0 µM): 90% | residual activity ([19]; compound 1.0 µM): 98% | residual activity ([20]; compound 1.0 µM): 97% | residual activity ([21]; compound 1.0 µM): 2% | residual activity ([22]; compound 1.0 µM): 70% | residual activity ([23]; compound 1.0 µM): 23%

O=C(NCCCNc1nc(Nc2cccc(NC(=O)N3CCCC3)c2)ncc1I)c1cccs1
residual activity ([2]; compound 1.0 µM): 97% | residual activity ([24]; compound 1.0 µM): 20% | residual activity ([25]; compound 1.0 µM): 9% | residual activity ([3]; compound 1.0 µM): 113% | residual activity ([26]; compound 1.0 µM): 71% | residual activity ([27]; compound 1.0 µM): 101% | residual activity ([4]; compound 1.0 µM): 86% | residual activity ([28]; compound 1.0 µM): 94% | residual activity ([29]; compound 1.0 µM): 116% | residual activity ([30]; compound 1.0 µM): 106% | residual activity ([31]; compound 1.0 µM): 106% | residual activity ([32]; compound 1.0 µM): 101% | residual activity ([5]; compound 1.0 µM): 110% | residual activity ([6]; compound 1.0 µM): 129% | residual activity ([33]; compound 1.0 µM): 9% | residual activity ([7]; compound 1.0 µM): 86% | residual activity ([34]; compound 1.0 µM): 50% | residual activity ([8]; compound 1.0 µM): 97% | residual activity ([9]; compound 1.0 µM): 86% | residual activity ([35]; compound 1.0 µM): 99% | residual activity ([10]; compound 1.0 µM): 85% | residual activity ([36]; compound 1.0 µM): 14% | residual activity ([11]; compound 1.0 µM): 76% | residual activity ([12]; compound 1.0 µM): 76% | residual activity ([13]; compound 1.0 µM): 106% | residual activity ([14]; compound 1.0 µM): 65% | residual activity ([1]; compound 1.0 µM): 66% | residual activity ([15]; compound 1.0 µM): 97% | residual activity ([37]; compound 1.0 µM): 58% | residual activity ([16]; compound 1.0 µM): 86% | residual activity ([38]; compound 1.0 µM): 14% | residual activity ([39]; compound 1.0 µM): 116% | residual activity ([17]; compound 1.0 µM): 94% | residual activity ([18]; compound 1.0 µM): 84% | residual activity ([19]; compound 1.0 µM): 103% | residual activity ([20]; compound 1.0 µM): 107% | residual activity ([40]; compound 1.0 µM): 70% | residual activity ([21]; compound 1.0 µM): 120% | residual activity ([22]; compound 1.0 µM): 94% | residual activity ([23]; compound 1.0 µM): 3% | residual activity ([41]; compound 1.0 µM): 95%

COc1ccc(C#Cc2ccc3ncc4ncn(-c5ccc(CCN)cc5)c4c3c2)cc1
residual activity ([2]; compound 10.0 µM): 9% | residual activity ([24]; compound 10.0 µM): 6% | residual activity ([25]; compound 10.0 µM): 58% | residual activity ([3]; compound 10.0 µM): 111% | residual activity ([26]; compound 10.0 µM): 6% | residual activity ([27]; compound 10.0 µM): 65% | residual activity ([4]; compound 10.0 µM): 17% | residual activity ([28]; compound 10.0 µM): 35% | residual activity ([29]; compound 10.0 µM): 105% | residual activity ([30]; compound 10.0 µM): 93% | residual activity ([31]; compound 10.0 µM): 91% | residual activity ([32]; compound 10.0 µM): 110% | residual activity ([5]; compound 10.0 µM): 83% | residual activity ([6]; compound 10.0 µM): 14% | residual activity ([33]; compound 10.0 µM): 6% | residual activity ([7]; compound 10.0 µM): 65% | residual activity ([34]; compound 10.0 µM): 11% | residual activity ([8]; compound 10.0 µM): 36% | residual activity ([9]; compound 10.0 µM): 118% | residual activity ([35]; compound 10.0 µM): 58% | residual activity ([10]; compound 10.0 µM): 78% | residual activity ([36]; compound 10.0 µM): 22% | residual activity ([11]; compound 10.0 µM): 92% | residual activity ([12]; compound 10.0 µM): 65% | residual activity ([13]; compound 10.0 µM): 30% | residual activity ([14]; compound 10.0 µM): 77% | residual activity ([1]; compound 10.0 µM): 3% | residual activity ([15]; compound 10.0 µM): 23% | residual activity ([37]; compound 10.0 µM): 78% | residual activity ([16]; compound 10.0 µM): 79% | residual activity ([38]; compound 10.0 µM): 10% | residual activity ([39]; compound 10.0 µM): 22% | residual activity ([17]; compound 10.0 µM): 134% | residual activity ([18]; compound 10.0 µM): 81% | residual activity ([19]; compound 10.0 µM): 57% | residual activity ([20]; compound 10.0 µM): 85% | residual activity ([40]; compound 10.0 µM): 91% | residual activity ([21]; compound 10.0 µM): 8% | residual activity ([22]; compound 10.0 µM): 26% | residual activity ([23]; compound 10.0 µM): 15% | residual activity ([41]; compound 10.0 µM): 65%

Source: the kinase profiling compilation of Christmann-Franck et al. (2016)
